One may read the LD50 as the dose at which mortality reaches 50%. The low end stands for greater toxicity, the high end for lower toxicity.

Here are results for twelve compounds from US5919799A, “Imidazothiazole compound” (Nikken Chemicals Co., Ltd., priority 1995, dated 1999).

In data set [1] the test system is VCR resistant murine leukemic (P388/VCR) cells. The data set is described as follows: In vivo effect of overcoming resistance to vincristine in VCR resistant murine leukemia cell bearing mice (intraperitoneal). Set-up: species or system CDF1 male mice. The note with it: i.p., 5 days; for Rate of prolongation of life (T/C %): vs non-administered control. The protocol: (a) 10^6 VCR resistant murine leukemic (P388/VCR) cells were transplanted intraperitoneally to groups of six CDF1 male mice. The compound of the present invention (10 or 100 mg/kg) was suspended in 0.5% sodium carboxymethyl cellulose containing 0.1% Tween 80, while the VCR (100 μg/kg) was dissolved in physiological saline. These were each administered intraperitoneally over 5 days and the mice observed to find the days of survival and the rate of prolongation of life with respect to the control (T/C). The effect in overcoming resistance to an anti-neoplastic agent (T/V) was found from the following formula:
Effect in overcoming resistance to anti-neoplastic agent (T/V%)=(Rate of prolongation of life when co-administering VCR and compound of present invention (T/C%))/(Rate of prolongation of life by VCR alone
In Table 5, "Control" is the non-administered group, VCR alone is the group administered just VCR (100 μg /kg), VCR+Compound 1 is the group co-administered VCR (100 μg /kg) and Compound 1 (100 mg/kg) and so on to VCR+Compound 14* which is the group co-administered VCR (100 μg /kg) and Compound 14 (10 mg/kg).

Data set [2] relates to VJ-300 cells (multidrug resistant clones of KB cells). The experiment in a line: In vitro suppression of proliferation of VJ-300 cells by co-administration with vincristine. Format: cell-based, Human. The protocol: As the incubation solution, an Eagle MEM medium (made by Nissui Seiyakusha) containing 10% fetal calf serum (made by Flow Laboratories Co.) and 0.292 mg/ml L-glutamine (made by Flow Laboratories Co.) was used. The action overcoming resistance to an anti-neoplastic agent and effect in enforcing the effect of an anti-neoplastic agent obtained through co-administration of the anti-neoplastic agent doxorubicin (adriamycin, ADM) and the test compounds were tested as follows:
The test cells were suspended in the incubation medium and adjusted to a cell density of about 200 cells/ml. 2 ml portions of the cell suspension were placed in petri dishes and incubated in a carbon dioxide gas incubator (5% CO2, 95% air) at 37° C. for 24 hours. Next, predetermined concentrations of aqueous ADM solutions and dimethyl sulfoxide (DMSO) solutions of predetermined concentrations of the test compounds were added into 5 to 10 μl portions, then incubation was continued for 7 days. After the end of the incubation, the samples were fixed by methanol, Giemsa staining was performed, the number of colonies in each dish was counted, and a volume reaction curve was prepared. This was used to calculate the ADM concentration at a 50% cell survival rate (LD50) and judge the action overcoming resistance to an anti-neoplastic agent and effect in enhancing the effect of an anti-neoplastic agent.
The LD50 concentration of ADM in the ADM control group for KB cells was shown as the resistance degree "1" and the other LD50 concentrations were indexed against this to calculate the resistance degrees. In Table 2, ADM alone (control) is the group administered ADM alone, ADM+Compound 1 is the group co-administered ADM and Compound 1 (1 μg /ml) and so on down to ADM+Compound 19 which is the group co-administered ADM and Compound 19 (1 μg /ml).
A volume reaction curve was prepared and the resistance calculated. In the Tables, VCR alone (control) is the group administered VCR alone, VCR+Compound 1 is the group co-administered VCR and Compound 1(1 μg /ml) and so on down to VCR+Compound 16 which is the group co-administered VCR and Compound 16 (1 μg/ml).

The test system of data set [3] is VCR resistant murine leukemia (P388/VCR) cells. The data set is described as follows: In vivo effect of overcoming resistance with etoposide (VP-16) in P388/VCR bearing mice (intravenous). Set-up: species or system CDF1 male mice. To be noted: i.v., five days; for Rate of prolongation of life (T/C %): vs non-administered control. The protocol: (b) Separately, groups of six CDF1 male mice were intravenously given transplants of 1.2×10^5 VCR resistant murine leukemia (P388/VCR) cells. The compound of the present invention (20 or 40 mg/kg) was dissolved in 0.01N hydrochloric acid. Etoposide (VP-16, 3 mg/kg) was dissolved in a physiological saline solution. These were administered intravenously for five days and the days of survival were found. In the same way as (a), the rate of prolongation of life with respect to the control (T/C) and the effect in overcoming the resistance to an anti-neoplastic agent (T/V) were found. In Table 6, the control is the non-administered group, VP-16 alone is the group administered VP-16 (3 mg/kg) and VP-16+Compound 5 is the group co-administered VP-16 (3 mg/kg) and Compound 5 (40 mg/kg) and so on to VP-16+Compound 16 which is the group co-administered VP-16 (3 mg/kg) and Compound 16 (40 mg/kg).

Data set [4] is described as follows: Acute toxicity test (a), intraperitoneal, three animals per group. To be noted: mouse, in vivo, ip, ICR male mice, up to 7 days after administration. The text has this:
(a) Animals used: ICR male mice (Charles River Japan), 7 to 8 weeks old, were used three to a group.
Test method: The compound of the present invention was suspended in 0.5% sodium carboxymethyl cellulose(CMC-Na) containing 0.1% Tween 80. […] The survival of the animals was examined up to 7 days after administration, then the Van Der Wearder area method was used to calculate the LD50 value.

Setting [5] is: VCR (100 μg/kg) + compound (100 mg/kg).
The mark [6] stands for this setting: VCR (100 μg/kg) + compound (100 mg/kg), vs VCR alone.
[7] abbreviates: Table 3, co-administered VCR and test compound (1 μg/ml), relative to VCR alone in KB = 1.
Where [8] appears, read: VP-16 (3 mg/kg) + compound (40 mg/kg).
Where [9] appears, read: VP-16 (3 mg/kg) + compound (40 mg/kg), vs VP-16 alone.
Where [10] appears, read: Table 4, co-administered VCR and test compound (1 μg/ml), relative to VCR alone in KB = 1.
The mark [11] stands for this setting: VCR (100 μg/kg) + compound (10 mg/kg).
[12] abbreviates: VP-16 (3 mg/kg) + compound (20 mg/kg).

Where a name gives a salt, the structure may show the parent alone.

With `O=C(NN=Cc1c(-c2ccccc2)nc2sc3c(n12)CCCC3)c1ccccc1` [Compound 8, 5,6,7,8-tetrahydro-2-phenyl-3-(benzoylaminoiminomethyl)imidazo[2,1-b]benzothiazole], in data set [1] (setting [5]), the Days of survival worked out at 12.00 days and the “Rate of prolongation of life (T/C %)” value came out at 115%. In data set [1] (setting [6]), the “Effect overcoming resistance (T/V %)” value stood at 108%. The “Resistance with VCR, VJ-300 (resistance degree)” value (“Resistance with VCR” below) in data set [2] (setting [7]) was found to be 3.5.

Consider `CCCN1CCCC(C(=O)NN=Cc2c(-c3ccccc3)nc3sc4ccccc4n23)C1` (stereo not shown) [Compound 16, 2-phenyl-3-[N-propyl-3-piperidylcarbonylaminoimino-methyl]imidazo[2,1-b]benzothiazole hydrochloride], for which, in data set [3] (setting [8]), the Days of survival worked out at 12.7 days and the “Rate of prolongation of life (T/C %)” value is 123%. In addition, the “Effect overcoming resistance (T/V %)” value in data set [3] (setting [9]) is 113%. Also, the “Resistance with VCR” value in data set [2] (setting [10]) is recorded as 2.6.

As to `CC[C@]1(O)C[C@H]2CN(CCc3c([nH]c4ccccc34)[C@@](C(=O)OC)(c3cc4c(cc3OC)N(C=O)[C@H]3[C@@](O)(C(=O)OC)[C@H](OC(C)=O)[C@]5(CC)C=CCN6CC[C@]43[C@@H]65)C2)C1` [VCR, vincristine, reference compound], in data set [1] (VCR alone (100 μg/kg)), the Days of survival amounted to 11.08 days and the “Rate of prolongation of life (T/C %)” value was found to be 106%. The “Effect overcoming resistance (T/V %)” value in data set [1] (VCR alone (100 μg/kg), reference = 100) amounted to 100%. Also, the “Resistance with VCR” value in data set [2] (Table 3, VCR alone (Control), relative to KB = 1) turned out to be 306.6. Besides, the “Resistance with VCR” value in data set [2] (Table 4, VCR alone (Control), relative to KB = 1) amounted to 843.1.

Regarding `O=C(NN=Cc1c(-c2ccccc2)nc2sc3ccccc3n12)c1cccnc1` [Compound 14, 2-phenyl-3-[3-pyridylcarbonylaminoiminomethyl]imidazo[2,1-b]benzothiazole], in data set [1] (setting [11]), the Days of survival stood at 13.67 days and the “Rate of prolongation of life (T/C %)” value was found to be 131%. In data set [1] (VCR (100 μg/kg) + compound (10 mg/kg), vs VCR alone), the “Effect overcoming resistance (T/V %)” value is 124%. The “Resistance with VCR” value in data set [2] (setting [10]) is recorded as 4.0.

Turning to `CN1CCCC(C(=O)NN=Cc2c(-c3ccc(-c4ccccc4)cc3)nc3sc4c(n23)CCCC4)C1` (stereo not shown) [Compound 11, 5,6,7,8-tetrahydro-2-biphenyl-3-[N-methyl-3-piperidylcarbonylaminoiminomethyl]imidazo[2,1-b]benzothiazole hydrochloride], in data set [3] (setting [8]), the Days of survival is given as 13.0 days and the “Rate of prolongation of life (T/C %)” value worked out at 126%. In addition, the “Effect overcoming resistance (T/V %)” value in data set [3] (setting [9]) is reported as 116%. For the same compound, the “Resistance with VCR” value in data set [2] (setting [10]) is on record as 1.3.

Regarding `CC(C)N1CCCC(C(=O)NN=Cc2c(-c3ccccc3)nc3sc4c(n23)CCCC4)C1` (stereo not shown) [Compound 13, 5,6,7,8-tetrahydro-2-phenyl-3-[N-isopropyl-3-piperidylcarbonylaminoiminomethyl]imidazo[2,1-b]benzothiazole hydrochloride], in data set [2] (setting [10]), the “Resistance with VCR” value was found to be 2.0.

In the case of `O=C(NN=Cc1c(-c2ccccc2)nc2sc3c(n12)CCCC3)C1CCCN(Cc2ccccc2)C1` (stereo not shown) [Compound 9, 5,6,7,8-tetrahydro-2-phenyl-3-[N-benzyl-3-piperidylcarbonylaminoiminomethyl]imidazo[2,1-b]benzothiazole], in data set [2] (setting [10]), the “Resistance with VCR” value is recorded as 2.5.

As for `O=C(NN=Cc1c(-c2ccc(-c3ccccc3)cc2)nc2sc3c(n12)CCCC3)c1cccnc1` [Compound 2, 5,6,7,8-tetrahydro-2-biphenyl-3-(3-pyridylcarbonylaminoiminomethyl)imidazo[2,1-b]benzothiazole], in data set [1] (setting [5]), the Days of survival stood at 12.67 days and the “Rate of prolongation of life (T/C %)” value came out at 121%. Moreover, the “Effect overcoming resistance (T/V %)” value in data set [1] (setting [6]) came to 114%. In data set [2] (setting [7]), the “Resistance with VCR” value came to 1.6. Also, in data set [4], the LD50 at 168 h was at least 2000 mg/kg.

Consider `COc1cc(-c2nc3sc4c(n3c2C=NNC(=O)c2cccnc2)CCCC4)cc(OC)c1OC` [Compound 4, 5,6,7,8-tetrahydro-2-(3,4,5-trimethoxyphenyl)-3-(3-pyridylcarbonylaminoiminomethyl)imidazo[2,1-b]benzothiazole], for which, in data set [1] (setting [5]), the Days of survival worked out at 13.28 days and the “Rate of prolongation of life (T/C %)” value amounted to 127%. In addition, the “Effect overcoming resistance (T/V %)” value in data set [1] (setting [6]) amounted to 120%. The “Resistance with VCR” value in data set [2] (setting [7]) is reported as 20.9.

Consider `CN1CCCC(C(=O)NN=Cc2c(-c3ccc([N+](=O)[O-])cc3)nc3sc4c(n23)CCCC4)C1` (stereo not shown) [Compound 10, 5,6,7,8-tetrahydro-2-(4-nitrophenyl)-3-[N-methyl-3-piperidylcarbonylaminoiminomethyl]imidazo[2,1-b]benzothiazole hydrochloride], for which, in data set [3] (setting [12]), the Days of survival is listed as 12.0 days and the “Rate of prolongation of life (T/C %)” value turned out to be 117%. Moreover, the “Effect overcoming resistance (T/V %)” value in data set [3] (VP-16 (3 mg/kg) + compound (20 mg/kg), vs VP-16 alone) was 107%. For the same compound, the “Resistance with VCR” value in data set [2] (setting [10]) is on record as 8.7.

On to `O=C(NN=Cc1c(-c2cccc([N+](=O)[O-])c2)nc2sc3c(n12)CCCC3)c1cccnc1` [Compound 3, 5,6,7,8-tetrahydro-2-(3-nitrophenyl)-3-(3-pyridylcarbonylaminoiminomethyl)imidazo[2,1-b]benzothiazole], for which the “Resistance with VCR” value in data set [2] (setting [7]) stood at 2.7.

For `COc1cc([C@@H]2c3cc4c(cc3[C@@H](O[C@@H]3O[C@@H]5CO[C@@H](C)O[C@H]5[C@H](O)[C@H]3O)[C@H]3COC(=O)[C@H]23)OCO4)cc(OC)c1O` [VP-16, Etoposide, reference compound], in data set [3] (VP-16 alone (3 mg/kg)), the Days of survival was 11.2 days and the “Rate of prolongation of life (T/C %)” value was 109%. In data set [3] (VP-16 alone (3 mg/kg), reference = 100), the “Effect overcoming resistance (T/V %)” value is reported as 100%.
